Values after ≈ are worked out from the molar mass of the structure shown.
System: Mycobacterium tuberculosis variant bovis BCG
Assay: microbe, parasite or virus in culture
Type: functional

| Compound | MIC90 [µM] |
| --- | --- |
| CS(=O)(=O)c1ccc(C(=O)Nc2nc(-c3ccccn3)cs2)cc1 | 3.6 (≈ 1.29 µg/mL) |
| Cc1cc(C)n(Cc2ccc(C(=O)NC3CCC(C(C)(C)C)CC3)cc2)n1 (configuration not stated) | 6.5 (≈ 2.39 µg/mL) |
| c1csc(Cc2nn3c(-c4n[nH]c5c4CCC5)nnc3s2)c1 | 3.2 (≈ 1.05 µg/mL) |
| CCc1nnc(NC(=O)c2cccc(C(=O)Nc3nnc(CC)s3)n2)s1 | 1.5 (≈ 0.584 µg/mL) |
| Cc1cccc(-c2nc(C(=O)Nc3ccnc4ncnn34)cs2)c1 | 5.3 (≈ 1.78 µg/mL) |
| CC(C)c1ccc(OCC(=O)NNC(=O)c2ccncc2)cc1 | 6.5 (≈ 2.04 µg/mL) |
| COc1ccccc1OCCCCn1c(C2CC2)nc2ccccc21 | 3 (≈ 1.01 µg/mL) |
| CCCc1cc(-c2nc(-c3ccc4c(c3)OCO4)cs2)ccn1 | 6.7 (≈ 2.17 µg/mL) |
| O=C(c1ccccc1)N1CCN(c2ccccc2NC(=O)C(Cl)(Cl)Cl)CC1 | 1 (≈ 0.427 µg/mL) |
| Brc1ccc2cc(C3=NCCCO3)[nH]c2c1 | 7.1 (≈ 1.98 µg/mL) |
| Cc1cc2ncn(-c3nccc(N4CCN(Cc5ccncc5)CC4)n3)c2cc1C | 2.8 (≈ 1.12 µg/mL) |
| FC(F)(F)c1ccccc1C1CCN(Cc2[nH]nc3ccccc23)CC1 | 6.3 (≈ 2.26 µg/mL) |
| CCS(=O)(=O)c1cccc(C(=O)Nc2nc(-c3ccccn3)cs2)c1 | 5.2 (≈ 1.94 µg/mL) |
| O=C(COc1ccc(F)cc1Cl)Nc1nc(-c2ccccn2)cs1 | 3.9 (≈ 1.42 µg/mL) |
| Cc1ccc2nc(C(F)(F)F)c(C(=O)NCc3cccs3)n2c1 | 1.2 (≈ 0.407 µg/mL) |
| Cn1c(=O)c(C(=O)NNC(=O)c2cccc(Cl)c2)c(O)c2ccccc21 | 5.3 (≈ 1.97 µg/mL) |
| O=C(NNC(=O)c1cccs1)c1cnn(-c2ccccc2)n1 | 4.5 (≈ 1.41 µg/mL) |
| CN(C)c1cc(C(=O)NCC2CCCCC2)ccc1NC(=O)OCc1ccccc1 | 5.6 (≈ 2.29 µg/mL) |
| Cc1cc(C(=O)Nc2nc3c(C)cccc3s2)c2c(C)nn(C(C)C)c2n1 | 2.5 (≈ 0.949 µg/mL) |
| Nn1c(=O)oc2ccc(Cl)cc2c1=O | 2.8 (≈ 0.595 µg/mL) |
| FC(F)(F)c1ccc2c(N3CCCNCC3)ncc(-c3ccsc3)c2n1 | 1.8 (≈ 0.681 µg/mL) |

| Compound | MIC90 [µM] |
| --- | --- |
| CCN(Cc1ccc(Cl)s1)C(=O)CSc1nc(NC)c2ccccc2n1 | 9.1 (≈ 3.7 µg/mL) |
| O=C(C1CCN(c2nnc(-n3cccc3)s2)CC1)N1CCC(Cc2ccccc2)CC1 | 3.4 (≈ 1.48 µg/mL) |
| CCOc1ccc(C(=O)Nc2nc(-c3ccccn3)cs2)cc1OCC | 5.6 (≈ 2.07 µg/mL) |
| O=C(CSc1ccc(Cl)cc1)NNC(=O)c1ccncc1 | 8.1 (≈ 2.61 µg/mL) |
| COc1cc(CN2CCC(Cc3nc(-c4ccc5c(c4)CCO5)no3)C2)ccc1F (configuration not stated) | 6.7 (≈ 2.74 µg/mL) |
| O=C(OCc1c(F)cccc1Cl)c1ccc(-n2ncc(Cl)c(Cl)c2=O)cc1 | 3.7 (≈ 1.58 µg/mL) |
| O=C(Nc1nc(-c2ccccn2)cs1)c1ccc2c(c1)CCCC2 | 6.8 (≈ 2.28 µg/mL) |
| O=C(COc1ccccc1)N1CCN(c2cnc3ccccc3n2)CC1 | 9.3 (≈ 3.24 µg/mL) |
| COc1ccc(-n2ncc3c(N4CCNCC4)nc(C4CC4)nc32)cc1 | 5.6 (≈ 1.96 µg/mL) |
| Cc1ccc2nc(C)c(C(=O)NCc3cccs3)n2c1 | 0.5 (≈ 0.143 µg/mL) |
| Cc1ccc2nc(C)c(C(=O)NCC(C)C)n2c1 | 4.8 (≈ 1.18 µg/mL) |
| Nc1cc(OCc2ccccc2)ccc1Nc1ccccc1 | 2.1 (≈ 0.61 µg/mL) |
| COc1cc(/C=C/C(=O)O)ccc1OCCN1CCCCCC1 | 7 (≈ 2.24 µg/mL) |
| Cc1ccc(Cl)c2sc(N(CCN(C)C)C(=O)c3cccc(S(C)(=O)=O)c3)nc12 | 4.2 (≈ 1.9 µg/mL) |
| O=C(Nc1ccc(F)c(Cl)c1)c1cnc(N2CCN(c3ncccn3)CC2)c2ccccc12 | 7.5 (≈ 3.47 µg/mL) |
| Cc1c(Cl)cc(F)cc1S(=O)(=O)NCCCn1nc(Cl)c(N2CCCNCC2)cc1=O | 7.9 (≈ 3.89 µg/mL) |
| CCOc1ccc(C(=O)Nc2ccc3c(c2)C(C)N(C)CC3)cc1Br (configuration not stated) | 4 (≈ 1.61 µg/mL) |
| O=C(CC1NC(=O)c2ccccc21)Nc1cccc(-c2cc(-c3c(Cl)cccc3Cl)no2)c1 (configuration not stated) | 5 (≈ 2.39 µg/mL) |
| CCn1c(-c2nonc2N)nc2c(-c3cccc(Cl)c3)ncc(OCCCNCCc3c[nH]cn3)c21 | 4.3 (≈ 2.18 µg/mL) |
| O=C(Nc1nnc(-c2ccc(F)cc2)o1)c1ccc(Cl)cc1 | 6.9 (≈ 2.19 µg/mL) |
| O=C(c1ccc(-c2cccc(OCCN(CCO)C3CCCCC3)c2)cc1)N1CCCC1 | 6.5 (≈ 2.84 µg/mL) |

| Compound | MIC90 [µM] |
| --- | --- |
| c1ccc(CNc2ncc(-c3ccc(CNCC4CCCO4)cc3)cn2)cc1 (configuration not stated) | 8.8 (≈ 3.3 µg/mL) |
| O=C(C=Cc1cccs1)Nc1nc(-c2ccccn2)cs1 | 3.3 (≈ 1.03 µg/mL) |
| Cc1nn(-c2nc(-c3ccccn3)nc3ccsc23)c(N)c1C#N | 7 (≈ 2.33 µg/mL) |
| Cc1cc(/C=C/c2cccc(C(=O)O)c2)cc(Cl)c1OC[C@@H]1CCCN1C | 9.5 (≈ 3.67 µg/mL) |
| O=c1nc(Oc2ccccc2)c(F)c[nH]1 | 4.2 (≈ 0.866 µg/mL) |
| COc1cc(Cl)c(Cl)cc1C(=O)Nc1cccc2c1CCN(C)C2 | 4 (≈ 1.46 µg/mL) |
| Cc1cc(C)c2cc(C(=O)NC3CCCCC3)[nH]c2c1 | 2.8 (≈ 0.757 µg/mL) |
| COc1ccc(-c2ccc(Nc3cccc(S(=O)(=O)CCNC4CCC4)c3)nc2)cn1 | 1.6 (≈ 0.702 µg/mL) |
| CCOc1ccc(-c2nc(NC(=O)C3CCCN3S(=O)(=O)c3cccs3)sc2C)cc1 (configuration not stated) | 2 (≈ 0.955 µg/mL) |
| Oc1ccc(CCNc2nc(NCc3cccc4ccccc34)nc(NC3CCNCC3)n2)cc1 | 10 (≈ 4.7 µg/mL) |
| O=C(c1cc2c(s1)CCC2)N1CCN(Cc2ccc3c(c2)OCO3)CC1 | 9.2 (≈ 3.41 µg/mL) |
| O=C(CCSc1ccc(Cl)cc1)Nc1nc(-c2ccccn2)cs1 | 3.9 (≈ 1.47 µg/mL) |
| CN1CCN(c2cc(-c3ccc(F)cc3)nc(-c3ccncc3)n2)CC1 | 7.9 (≈ 2.76 µg/mL) |
| CCCSc1ncccc1C(=O)Nc1ccccc1Nc1ccccc1 | 0.8 (≈ 0.291 µg/mL) |
| CCCOC(=O)COc1ccc2c(=O)c(-c3ccccc3OC)coc2c1 | 9.8 (≈ 3.61 µg/mL) |
| Cc1ccc2nc(Cl)c(CNCc3cccs3)cc2c1 | 7.2 (≈ 2.18 µg/mL) |
| O=C(Nc1nnc(-c2ccc(Br)cc2)o1)c1cccc(C(F)(F)F)c1 | 1.5 (≈ 0.618 µg/mL) |
| CCCCc1cc(OC)c(C(=O)Nc2cccc3c2CCN(C)C3)cc1Cl | 6.4 (≈ 2.48 µg/mL) |
| O=C(Nc1ccc2c(c1)OCC(=O)N2Cc1ccccc1Cl)NC1CCCCC1 | 5.7 (≈ 2.36 µg/mL) |
| CCOc1ccc(NC(=O)N(C2CCCCC2)C(C)c2cccnc2)cc1 (configuration not stated) | 7.2 (≈ 2.65 µg/mL) |
| CCOc1ccc(CC(=O)Nc2cc(C)nn2-c2nc(C)c(CC)c(=O)[nH]2)cc1 | 3.3 (≈ 1.31 µg/mL) |

| Compound | MIC90 [µM] |
| --- | --- |
| c1cc(Oc2ccnc(N3CCC4(CCNC4)CC3)n2)c2cc[nH]c2c1 | 7.5 (≈ 2.62 µg/mL) |
| Cc1ccc(O)cc1Nc1ccnc2ccc(-c3cccc(CNCCN(C)C)c3)cc12 | 9.1 (≈ 3.88 µg/mL) |
| CCCCC1=NN(C(=O)c2ccncc2)C(O)(C(F)(F)F)C1 (configuration not stated) | 5.5 (≈ 1.73 µg/mL) |
| Cc1cc(CN2CCCN(c3ncc(-c4ccsc4)c4nc(C(F)(F)F)ccc34)CC2)no1 | 9.8 (≈ 4.64 µg/mL) |
| CCc1c(C)nc(-n2nc(C)cc2NC(=O)CCc2ccccc2)[nH]c1=O | 3.8 (≈ 1.39 µg/mL) |
| Cc1cc(C)c2nc(N3CCN(C)CC3)cc(C)c2c1 | 8.9 (≈ 2.4 µg/mL) |
| Cc1nc2ccccn2c1C(=O)NCc1ccccc1 | 3.4 (≈ 0.902 µg/mL) |
| COc1ccc(CCNC(=O)c2c(C)nc3ccccn23)cc1 | 6.9 (≈ 2.13 µg/mL) |
| CS(=O)(=O)c1oc(-c2cccs2)nc1S(=O)(=O)c1ccc(F)cc1 | 6.9 (≈ 2.67 µg/mL) |
| CN(CCOc1cccc(-c2ccc(C(=O)N3CCCC3)cc2)c1)Cc1cc(-c2ccccc2)no1 | 3.1 (≈ 1.49 µg/mL) |
| CCOc1ccc(OCc2ccc(C(=O)NNC(=O)c3ccc([N+](=O)[O-])o3)cc2)cc1 | 1.6 (≈ 0.681 µg/mL) |
| N#Cc1nc(-c2cccs2)oc1S(=O)(=O)c1ccc(Br)cc1 | 2.9 (≈ 1.15 µg/mL) |
| O=C(Nc1nncs1)c1c(O)c2ccccc2n(Cc2ccccc2)c1=O | 6.9 (≈ 2.61 µg/mL) |
| COc1ccccc1C(=O)N(Cc1cccnc1)Cc1cc2c(C)cc(C)cc2nc1Cl | 5.9 (≈ 2.63 µg/mL) |
| O=C(Cc1ccc(Cl)cc1)Nc1nc(-c2ccccn2)cs1 | 4.3 (≈ 1.42 µg/mL) |
| O=S(=O)(CCNCC1CC1)c1cccc(Nc2ccc(-c3cccc(F)c3)cn2)c1 | 5.3 (≈ 2.26 µg/mL) |
| O=C(Nc1nc(-c2ccccn2)cs1)c1ccno1 | 1.8 (≈ 0.49 µg/mL) |
| O=C(Nc1nnc(-c2ccc(Cl)cc2)o1)c1cccc(C(F)(F)F)c1 | 5.3 (≈ 1.95 µg/mL) |
| Nc1nc2cc(-c3cncc(Oc4ccc(F)cc4)c3)ccc2[nH]1.O=C(O)C(F)(F)F.O=C(O)C(F)(F)F | 6.2 |
